Data reported in patent US5134150A, “Inhibition of the 5-lipoxygenase pathway” (priority 1989, dated 1992).

Molecular target: T1, 5-Lipoxygenase (Rattus norvegicus, UniProt P12527)
T1 construct: The activities of these enzymes in extracts of RBL-1 cells were assayed; host or cells: RBL-1
T1 sequence (P12527 1-673): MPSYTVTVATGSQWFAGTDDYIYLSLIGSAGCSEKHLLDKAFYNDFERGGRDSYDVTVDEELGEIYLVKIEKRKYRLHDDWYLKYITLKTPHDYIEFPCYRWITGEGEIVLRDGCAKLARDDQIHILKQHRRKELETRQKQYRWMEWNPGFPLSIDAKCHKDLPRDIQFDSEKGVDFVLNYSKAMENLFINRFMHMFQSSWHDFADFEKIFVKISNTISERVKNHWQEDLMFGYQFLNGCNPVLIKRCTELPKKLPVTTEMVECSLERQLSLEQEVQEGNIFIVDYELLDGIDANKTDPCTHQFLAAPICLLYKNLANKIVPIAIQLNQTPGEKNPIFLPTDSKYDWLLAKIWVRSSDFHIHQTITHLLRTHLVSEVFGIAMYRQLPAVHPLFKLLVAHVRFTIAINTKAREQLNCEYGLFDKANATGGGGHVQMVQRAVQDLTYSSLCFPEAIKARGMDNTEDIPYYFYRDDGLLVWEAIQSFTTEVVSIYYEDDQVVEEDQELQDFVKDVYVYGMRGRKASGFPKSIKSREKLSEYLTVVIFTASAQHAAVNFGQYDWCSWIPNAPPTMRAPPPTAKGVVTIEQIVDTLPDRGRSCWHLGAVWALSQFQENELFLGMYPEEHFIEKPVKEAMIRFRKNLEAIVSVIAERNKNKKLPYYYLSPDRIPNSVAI
Test: 5-HETE production by high speed supernatant of RBL-1 cells
Format: biochemical
Method: For in vitro experiments, compounds were dissolved at appropriate concentrations in ethanol or DMSO (dimethylsulfoxide) (final concentration≤1.0%) and then diluted to final concentrations using the buffers indicated in the text.
The activities of these enzymes in extracts of RBL-1 cells were assayed using the method of Jakschik and Lee, Nature, 287, 51-52 (1980). RBL-1 cells were obtained from the American Type Culture Collection (#CRL 1378) and were grown at 37° C. (5% CO2 in air) in spinner culture in MEM supplemented with 10% heat inactivated fetal calf serum. Harvested cells were washed with 50 mM sodium phosphate buffer, pH 7.0, containing 1 mM EDTA and 0.1% gelatin, resuspended in fresh buffer (5×10^7 cells/ml) and disrupted by nitrogen cavitation using the Parr bomb at 750 psi for 10 min. The broken cell extract was then centrifuged at 10,000× g for 20 minutes (min) and the supernatant centrifuged at 100,000 xIg for 60 min. Aliquots (0.25 mls) of the supernatant were preincubated with or without drugs for 10 min, after which 10 μl CaCl2 (50 mM) was added and the reaction was initiated with 2.5 μl of 2.5 mM arachidonic acid-1-^14 C (final concentration was 25 μM; specific activity 20,000 dpm/nmole). After incubation for 3 min at 37° C., the reaction was terminated by addition of 2 volumes (0.5 ml) ice cold acetone and the sample was allowed to deproteinize on ice for 10 min prior to centrifugation at 1,000× g for 10 min. The deproteinized supernatant was adjusted to pH 3.5 with 2N formic acid and extracted with 2 volumes of ice cold ethyl acetate. The extracted samples were dried under argon, redissolved in ethyl acetate and applied to Whatman LK5D thin layer chromatography (TLC) plates which were developed using the A-9 solvent system [organic phase of ethyl acetate: 2,2,5-trimethylpentane:acetic acid: water (110:50:20:10)] described by Hamberg and Samuelsson, J. Biol. Chem., 241, 257-263 (1966). Arachidonic acid, 5-HETE, LTB4 and PGD2 were quantified with a Berthold LB 2832 autoscanner.
The 5-lipoxygenase and LTA4 synthetase activities were further studied under the following conditions. An additional centrifugation of the RBL-1 supernatant was run at 100,000× g for 60 min, to remove the particulate cyclooxygenase activity. Sample incubation was done under conditions similar to those described above, i.e., 2 mM CaCl2 and […] arachidonic acid-1-^14 C, however, with an incubation time of 5 min at 5° C. Under these conditions, only the 5-lipoxygenase pathway metabolites were detectable. The 5-HETE and di-HETEs were formed at a linear rate, and substantial amounts of the arachidonic acid-1-^14 C substrate were utilized.

- 5-HETE (1 μM): 8.86 ± 0.31 nM/ml
- 5-HETE (3.3 μM): 7.63 ± 0.44 nM/ml
- 5-HETE (10 μM): 5.57 ± 0.35 nM/ml
- 5-HETE (33 μM): 3.36 ± 0.07 nM/ml
- 5-HETE (100 μM): 1.08 ± 0.13 nM/ml
Structure (SMILES): Fc1ccc(-c2nc3n(c2-c2ccncc2)CCS3)cc1 [Compound 1]
